Laboratory results as given in the supplement of paper PMC4862054.

What was measured:
Test in all cases: drug sensitivity score (DSS), CellTiter-Glo (DSS (AUC-based score)); higher = stronger drug effect (viability inhibition or cytotoxicity); extreme values may be limits of the assay
Settings in all cases: incubation time: 72 h
MFM-223 = tested on: MFM-223
Method in brief: (§1)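 After 72 h of incubation in 384-well plates with compound at 5 concentrations (10-fold steps, 10,000-fold range set per compound), breast cancer cell lines seeded in 20 µl suspension were read first for CellTox Green fluorescence at 485/520 nm. CellTiter-Glo luminescence was measured next, after 10 min at room temperature. Normalisation on each plate used 0.1 % DMSO and a positive kill control, and the drug sensitivity score was computed from the area under the fitted dose-response curve.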

CAL-120 = tested on: CAL-120
Method in brief: as §1

MDA-MB-436 = tested on: MDA-MB-436
Method in brief: as §1

BT-549 = tested on: BT-549
Method in brief: as §1

HCC1599 = tested on: HCC1599
Method in brief: as §1

HCC1143 = tested on: HCC1143
Method in brief: as §1

CAL-148 = tested on: CAL-148
Method in brief: as §1

CAL-85-1 = tested on: CAL-85-1
Method in brief: as §1

CAL-51 = tested on: CAL-51
Method in brief: as §1

Compound	drug sensitivity score (MFM-223)	drug sensitivity score (CAL-120)	drug sensitivity score (MDA-MB-436)	drug sensitivity score (BT-549)	drug sensitivity score (HCC1599)	drug sensitivity score (HCC1143)	drug sensitivity score (CAL-148)	drug sensitivity score (CAL-85-1)	drug sensitivity score (CAL-51)
CN[C@@H]1C[C@H]2O[C@@](C)([C@@H]1OC)n1c3ccccc3c3c4c(c5c6ccccc6n2c5c31)C(=O)N[C@H]4O [UCN-01]	16.6	24.9	20.9	21.6	27.9	19.7	8.79	22.6	23.9
C#Cc1cccc(Nc2ncnc3cc(OCCOC)c(OCCOC)cc23)c1 [Erlotinib]	0	0.577	0.203	0	0	0	1.84	7.99	2.18
CCC1=C[C@@H]2CN(C1)Cc1c([nH]c3ccccc13)[C@@](C(=O)OC)(c1cc3c(cc1OC)N(C)[C@H]1[C@@](O)(C(=O)OC)[C@H](OC(C)=O)[C@]4(CC)C=CCN5CC[C@]31[C@@H]54)C2 [Vinorelbine]	16	13.2	21.9	20.7	18.8	15.6	17.1	19.8	17.1
NC(=O)Nc1cc(-c2cccc(F)c2)sc1C(=O)N[C@H]1CCCNC1 [AZD7762]	0	2.9	5.18	8.18	6.96	4.03	0	9.45	1.07
Cn1c(Nc2ccc(C(F)(F)F)cc2)nc2cc(Oc3ccnc(-c4ncc(C(F)(F)F)[nH]4)c3)ccc21 [RAF265]	2.07	3.6	2.94	1.66	0	0	0	1.63	0
CC(C)Cn1cnc2c(N)nc3ccccc3c21 [Imiquimod]	0	0	0	0	0	0	0	0	0
N[C@@H](CSC(c1ccccc1)(c1ccccc1)c1ccccc1)C(=O)O [S-trityl-L-cysteine]	0	0	0	0	0	0	0	0	0
Cc1ccc(C(=O)N(CCCN)[C@@H](c2oc3cc(Cl)ccc3c(=O)c2Cc2ccccc2)C(C)C)cc1	0	0	0	0	0	0	0	0	9.66
C=C(c1ccc(C(=O)O)cc1)c1cc2c(cc1C)C(C)(C)CCC2(C)C [Bexarotene]	0	0	0	0	9	0	0	0	0
